What was measured:
Type in all cases: in vivo, rat
[1] = system: Wistar rats; test: Acute survival study after LPS
Description: (§1) The animal experiment is approved by the Animal Care and Use Committee at the Kaohsiung Medical University. The male Wistar rats, weighing 250-350 g, are provided by the National Laboratory Animal Breeding and Research Center (Taipei, Taiwan). The rats are housed under conditions of constant temperature and controlled illumination (light regime of 12 h light and 12 h darkness). The rats are allowed food and water ad libitum. They are anesthetized with an intraperitoneal (i.p.) injection of pentobarbital sodium (50 mg/kg). Following tracheal cannulation, systemic arterial blood pressure and heart rate are recorded from the femoral artery with a pressure transducer (Spectramed, Model P10EZ, USA). Body temperature is maintained at 37° C. by an electric heating pad. A femoral vein is cannulated for the administration of LPS (E. coli serotype 026:B6), HBCM, baicalin, or dexamethasone (DEXA), respectively. The rats are injected intravenously with either saline (0.1 ml/kg) or LPS (10 mg/kg) for control and experimental purposes, respectively. All the animals are assigned to one of the following groups: saline only, LPS/saline, LPS/HBCM (75 mg/kg), LPS/baicalin (1.5 mg/kg), and LPS/DEXA (0.5 mg/kg) groups. LPS is injected at a dose of 10 mg/kg, after 10 min, HBCM, baicalin and DEXA are given, respectively.
A single injection of LPS (10 mg/kg, i.v.) leads to a biphasic arterial hypotension: an initial and transient decrease in arterial mean blood pressure (about 10 min), followed by a delayed and prolonged hypotension. The HBCM (75 mg/kg, i.v.), baicalin (1.5 mg/kg, i.v.) and DEXA (0.5 mg/kg, i.v.) are administrated 10 min after LPS administration. The used dose of baicalin is according to the content of baicalin in HBCM by the HPLC method. Separate groups are used for acute survival study (n=10 each), lung tissue sampling (n=10 each), and blood sampling (n=10 each). […]
The animals without pulmonary are monitored per 30 minutes for 7 hours after LPS administration. The blood pressure (BP) changes were recorded within 5 hours after LPS injection. […]

[2] = system: Wistar rats; test: Attenuation of LPS-induced arterial hypotension (post-treatment); conditions: HBCM 75 mg/kg, baicalin 1.5 mg/kg, DEXA 0.5 mg/kg i.v. 10 min after LPS 10 mg/kg i.v.; FIG. 3
Description: as §1, with “given, respectively. […]” for “given, respectively.”

[3] = system: Wistar rats; test: LPS-induced lung edema (wet/dry weight ratio); conditions: 5 hours after LPS; HBCM, baicalin, DEXA given 10 min after LPS; FIG. 7
Description: as §1, with “The rats are injected intravenously with either saline (0.1 ml/kg) or LPS (10 mg/kg) for control and experimental purposes, respectively. All the animals are assigned to one of the following groups: saline only, LPS/saline, LPS/HBCM (75 mg/kg), LPS/baicalin (1.5 mg/kg), and LPS/DEXA (0.5 mg/kg) groups. LPS is injected at a dose of 10 mg/kg, after 10 min, HBCM, baicalin and DEXA are given, respectively.” left out
The water content of the lungs is determined by calculating the wet/dry weight ratio of lung tissues at 5 hours after LPS administration. […] The dry weight is determined after the lung is dried at 80° C. for 72 hours, and the edema index (wet/dry weight ratio) is calculated by dividing the wet weight by the dry weight. The edema index indicates the water content of the lung, which is determined by calculating the wet/dry weight ratio of lung tissues at 5 hours after LPS administration.

[4] = system: iNOS; test: LPS-induced iNOS in lung tissues (western blot); conditions: 5 h after LPS 10 mg/kg; HBCM 75, baicalin 1.5, DEXA 0.5 mg/kg post-treatment; FIG. 8
Description: as §1, with “All the animals are assigned to one of the following groups: saline only, LPS/saline, LPS/HBCM (75 mg/kg), LPS/baicalin (1.5 mg/kg), and LPS/DEXA (0.5 mg/kg) groups. LPS is injected at a dose of 10 mg/kg, after 10 min, HBCM, baicalin and DEXA are given, respectively.” left out
(§2) The HBCM, baicalin and DEXA are post-treated 10 minutes after the administration of LPS. […] The expression of each protein is detected by enhanced chemiluminescence using Hyperfilm and ECL reagent (Amersham, UK).

[5] = system: phosphorylated p38 MAP kinase; test: LPS-induced phosphorylated p38 MAP kinase in lung tissues (western blot); conditions: 5 h after LPS 10 mg/kg; HBCM 75, baicalin 1.5, DEXA 0.5 mg/kg post-treatment; FIG. 8
Description: as §1, with “All the animals are assigned to one of the following groups: saline only, LPS/saline, LPS/HBCM (75 mg/kg), LPS/baicalin (1.5 mg/kg), and LPS/DEXA (0.5 mg/kg) groups. LPS is injected at a dose of 10 mg/kg, after 10 min, HBCM, baicalin and DEXA are given, respectively.” left out
as §2

[6] = system: TGF-β; test: LPS-induced TGF-β in lung tissues (western blot); conditions: 5 h after LPS 10 mg/kg; HBCM 75, baicalin 1.5, DEXA 0.5 mg/kg post-treatment; FIG. 8
Description: as §1, with “All the animals are assigned to one of the following groups: saline only, LPS/saline, LPS/HBCM (75 mg/kg), LPS/baicalin (1.5 mg/kg), and LPS/DEXA (0.5 mg/kg) groups. LPS is injected at a dose of 10 mg/kg, after 10 min, HBCM, baicalin and DEXA are given, respectively.” left out
as §2

[7] = system: ICAM-1; test: LPS-induced ICAM-1 in lung tissues (western blot); conditions: 5 h after LPS 10 mg/kg; HBCM 75, baicalin 1.5, DEXA 0.5 mg/kg post-treatment; FIG. 8
Description: as §1, with “All the animals are assigned to one of the following groups: saline only, LPS/saline, LPS/HBCM (75 mg/kg), LPS/baicalin (1.5 mg/kg), and LPS/DEXA (0.5 mg/kg) groups. LPS is injected at a dose of 10 mg/kg, after 10 min, HBCM, baicalin and DEXA are given, respectively.” left out
as §2

[8] = system: TNF-α; test: LPS-induced plasma TNF-α immunoreactivity (post-treatment, ELISA); conditions: LPS 10 mg/kg i.v.; HBCM 75, baicalin 1.5, DEXA 0.5 mg/kg 10 min after LPS; FIG. 9
Description: as §1, with “given, respectively. […]” for “given, respectively.”

[9] = system: IL-1β; test: LPS-induced plasma IL-1β immunoreactivity (post-treatment, ELISA); conditions: LPS 10 mg/kg i.v.; post-treatment 10 min after LPS; up to 5 hours; FIG. 9
Description: as §1, with “given, respectively. […]” for “given, respectively.”

[10] = system: MCP-1; test: LPS-induced plasma MCP-1 immunoreactivity (post-treatment, ELISA); conditions: LPS 10 mg/kg i.v.; post-treatment 10 min after LPS; up to 5 hours; FIG. 9
Description: as §1, with “given, respectively. […]” for “given, respectively.”

SMILES	time all the rats survive ([1]; LPS 10 mg/kg, DEXA 0.5 mg/kg i.v. 10 min after LPS, n=10)	LPS-induced prolonged arterial hypotension [2]	survival for 7 hours ([1]; LPS 10 mg/kg, HBCM 75 mg/kg or baicalin 1.5 mg/kg i.v. 10 min after LPS, n=10) [%]	survival rate compared with LPS/saline group ([1]; post-treatment 10 min after LPS 10 mg/kg, FIG. 6)	LPS-induced lung edema (wet/dry weight ratio) [3]	LPS-induced iNOS expression in lung tissues [4]	LPS-induced phosphorylated p38 MAP kinase expression in lung tissues [5]	LPS-induced TGF-β expression in lung tissues [6]	LPS-induced ICAM-1 expression in lung tissues [7]	elevation of plasma TNF-α vs LPS/saline group [8]	elevation of plasma IL-1β vs LPS/saline group [9]	elevation of plasma MCP-1 vs LPS/saline group [10]
C[C@@H]1C[C@H]2[C@@H]3CCC4=CC(=O)C=C[C@]4(C)[C@@]3(F)[C@@H](O)C[C@]2(C)[C@@]1(O)C(=O)CO [DEXA, dexamethasone]	more than 7 hours	–	–	–	–	–	–	–	–	–	–	–
O=C(O)[C@H]1O[C@@H](Oc2cc3oc(-c4ccccc4)cc(=O)c3c(O)c2O)[C@H](O)[C@@H](O)[C@@H]1O [baicalin]	–	significantly attenuates	90	significantly better survival rate	significantly attenuates	significant inhibition	significant inhibition	significant inhibition	significant inhibition	significantly lower	lower	lower
